Results from ChEMBL document CHEMBL1122324, “New antihypertensive cannabinoids” (1983).

Experiments:
Settings in all cases: route oral
Rattus norvegicus [1] = test: Percentage decrease in systolic blood pressure after 24 hr at 30 mg/kg administered perorally in rats; format: functional, Artery
Rattus norvegicus [2] = test: percentage decrease in heart rate after 24 hr at a dose of 30 mg/kg administered perorally in rats; format: functional
Rattus norvegicus [3] = test: Percentage decrease in systolic blood pressure after 4 hr at 30 mg/kg administered perorally in rats; format: functional, Artery
Rattus norvegicus [4] = test: percentage decrease in heart rate after 4 hr at a dose of 30 mg/kg administered perorally in rats; format: functional
Rattus norvegicus [5] = test: Percentage decrease in systolic blood pressure after 6 hr at 30 mg/kg administered perorally in rats; format: functional, Artery
Rattus norvegicus [6] = test: percentage decrease in heart rate after 1 hr at a dose of 30 mg/kg administered perorally in rats; format: functional
Rattus norvegicus [7] = test: Percentage decrease in systolic blood pressure after 1 hr at 30 mg/kg administered perorally in rats; format: functional, Artery
Rattus norvegicus [8] = test: percentage decrease in heart rate after 6 hr at a dose of 30 mg/kg administered perorally in rats; format: functional
Rattus norvegicus [9] = test: Percentage decrease in systolic blood pressure after 4 hr at 100 mg/kg administered perorally in rats; format: functional, Artery
Rattus norvegicus [10] = test: percentage decrease in heart rate after 4 hr at a dose of 100 mg/kg administered perorally in rats; format: functional
Rattus norvegicus [11] = test: Percentage decrease in systolic blood pressure (heart rate) after 4 hr at 30 mg/kg administered perorally in rats; format: functional, Artery
Rattus norvegicus [12] = test: Percentage decrease in systolic blood pressure (heart rate) after 4 hr at 100 mg/kg administered perorally in rats; format: functional, Artery
Rattus norvegicus [13] = test: Percentage decrease in systolic blood pressure after 4 hr at 300 mg/kg administered perorally in rats; format: functional, Artery
Rattus norvegicus [14] = test: percentage decrease in heart rate after 4 hr at a dose of 300 mg/kg administered perorally in rats; format: functional

CCCCCC(C)C(C)c1cc(O)c2c(c1)OC(C)(C)C1=C2CN(C(=O)CN)CC1 (stereo unspecified)
Decrease in Systolic blood pressure (Rattus norvegicus [1]): 2% | Heart rate (Rattus norvegicus [2]): 10% | Decrease in Systolic blood pressure (Rattus norvegicus [3]): 10% | Heart rate (Rattus norvegicus [4]): -5% | Decrease in Systolic blood pressure (Rattus norvegicus [5]): 8% | Heart rate (Rattus norvegicus [6]): 9% | Decrease in Systolic blood pressure (Rattus norvegicus [7]): 12% | Heart rate (Rattus norvegicus [8]): 13%

CCCCCC(C)C(C)c1cc(O)c2c(c1)OC(C)(C)C1=C2CN(C(=O)CCO)CC1 (stereo unspecified)
Decrease in Systolic blood pressure (Rattus norvegicus [9]): 6% | Heart rate (Rattus norvegicus [10]): -1%

CCCCCC(C)C(C)c1cc(O)c2c(c1)OC(C)(C)C1CCN(C(=O)CN3CCCCC3)C=C21 (stereo unspecified)
Decrease in Systolic blood pressure (Rattus norvegicus [9]): 10% | Heart rate (Rattus norvegicus [10]): -8%

CCCCCC(C)C(C)c1cc(O)c2c(c1)OC(C)(C)C1CCN(C(=O)CN)C=C21 (stereo unspecified)
Decrease in Systolic blood pressure (Rattus norvegicus [9]): 12% | Heart rate (Rattus norvegicus [10]): 7%

CC(CCCc1ccc(F)cc1)c1cc(O)c2c(c1)OC(C)(C)C1=C2CN(C(=O)CO)CC1 (stereo unspecified)
Decrease in Systolic blood pressure (Rattus norvegicus [11]): 10% | Heart rate (Rattus norvegicus [4]): 30% | Decrease in Systolic blood pressure (Rattus norvegicus [12]): 8% | Heart rate (Rattus norvegicus [10]): 19%

CCCCCC(C)C(C)c1cc(OC(=O)COC(C)=O)c2c(c1)OC(C)(C)C1=C2CN(C(=O)COC(C)=O)CC1 (stereo unspecified)
Decrease in Systolic blood pressure (Rattus norvegicus [11]): 10%

CCCCCC(C)C(C)c1cc(O)c2c(c1)OC(C)(C)C1CCN(C(=O)CN3CCOCC3)C=C21 (stereo unspecified)
Decrease in Systolic blood pressure (Rattus norvegicus [1]): -6% | Heart rate (Rattus norvegicus [2]): 14% | Decrease in Systolic blood pressure (Rattus norvegicus [9]): 23% | Decrease in Systolic blood pressure (Rattus norvegicus [3]): -5% | Decrease in Systolic blood pressure (Rattus norvegicus [13]): 26% | Heart rate (Rattus norvegicus [14]): 9% | Heart rate (Rattus norvegicus [4]): 6% | Decrease in Systolic blood pressure (Rattus norvegicus [5]): -1% | Heart rate (Rattus norvegicus [6]): -16% | Decrease in Systolic blood pressure (Rattus norvegicus [7]): -8% | Heart rate (Rattus norvegicus [8]): 0% | Heart rate (Rattus norvegicus [10]): 5%
